Legend:
AD patients = conditions: AD subjects; cited from earlier work
CK-p25 Tg mice [1] = assay: Cortical (Hoechst) and neuronal (NeuN) layer thickness in CK-p25 Tg mice; type: in vivo, mouse; conditions: for thickness of neuronal layer of the insular cortex / thickness of SS1-neuronal layer: NeuN; for thickness of SS1-neuronal layer / thickness of SS1-cortical layer: somatosensory cortex
CK-p25 Tg mice [2] = assay: NeuN-positive cells (neuronal loss) in CK-p25 Tg mice; type: in vivo, mouse
Experimental: A study was conducted to examine the effect of gamma exposure and/or administration in accordance with some embodiments on DNA damage and neuronal loss in the visual cortex of a subject. For the study, an inducible mouse model of p25 accumulation (i.e., a creatine kinase carboxyl-terminal fragment p25 Tg mouse (CK-p25 Tg mouse)) was used. […] A study was conducted to compare groups of mice under different treatment regimens. FIG. 84 is a diagram of the groups including CK-control mice 8400, untreated CK-p25 Tg mice 8402, CK-p25 Tg mice treated with memantine (10 mg/kg daily) 8404, CK-p25 Tg mice exposed to the 40-Hz light flicker (one hour daily for 6 weeks) in accordance with some embodiments 8406, and CK-p25 Tg mice treated with memantine and also exposed to the 40-Hz light flicker 8408. Memantine is a medication used with limited success to treat severe AD by blocking NMDA receptors, thereby acting on the glutamatergic system. FIG. 98 is a bar graph comparing the amount of NeuN-positive cells as a percentage of the NeuN-positive cells in CK-control mice for the CK-control mice, untreated CK-p25 Tg mice, CK-p25 Tg mice treated with memantine, CK-p25 Tg mice exposed to the 40-Hz light flicker in accordance with some embodiments, and CK-p25 Tg mice treated with both memantine and the 40-Hz light flicker. Thus, the percentage of the CK-control mice NeuN-positive cells are 100% in the CK-control mice, but only about 80% in untreated CK-p25 Tg mice, corroborating neuronal loss in the CK-p25 Tg mouse model. […] Thus, FIG. 98 illustrates how 40-Hz visual flicker treatment in accordance with some embodiments can preserve neurons in the visual cortex.

CK-p25 Tg mice [3] = assay: γH2AX-positive cells (DNA damage) in CK-p25 Tg mice; type: in vivo, mouse
Experimental: A study was conducted to examine the effect of gamma exposure and/or administration in accordance with some embodiments on DNA damage and neuronal loss in the visual cortex of a subject. For the study, an inducible mouse model of p25 accumulation (i.e., a creatine kinase carboxyl-terminal fragment p25 Tg mouse (CK-p25 Tg mouse)) was used. […] A study was conducted to compare groups of mice under different treatment regimens. FIG. 84 is a diagram of the groups including CK-control mice 8400, untreated CK-p25 Tg mice 8402, CK-p25 Tg mice treated with memantine (10 mg/kg daily) 8404, CK-p25 Tg mice exposed to the 40-Hz light flicker (one hour daily for 6 weeks) in accordance with some embodiments 8406, and CK-p25 Tg mice treated with memantine and also exposed to the 40-Hz light flicker 8408. Memantine is a medication used with limited success to treat severe AD by blocking NMDA receptors, thereby acting on the glutamatergic system. DNA double strand breaks (DSB) are one example of DNA damage in eukaryotic cells, causing genomic instability, leading to tumorigenesis and possibly accelerated aging. Phosphorylated histone H2AX (γH2AX) was used as a biomarker of cellular response to DSB. FIG. 99 is bar graph comparing the amount of γH2AX-positive cells in CK-control mice, untreated CK-p25 Tg mice, CK-p25 Tg mice treated with memantine, CK-p25 Tg mice exposed to the 40-Hz light flicker in accordance with some embodiments, and CK-p25 Tg mice treated with both memantine and the 40-Hz light flicker. Cells positive for γH2AX were almost non-existent in CK-control mice, but very high in untreated CK-p25 Tg mice, indicating high amounts of DSB and other DNA damage. Treatment with memantine reduced the amount of γH2AX-positive cells in CK-p25 Tg mice compared to the untreated group. […] Thus, FIG. 99 illustrates how 40-Hz visual flicker treatment in accordance with some embodiments can reduce DNA damage in the visual cortex.

CK-p25 Tg mice [4] = assay: Cortical (Hoechst) and neuronal (NeuN) layer thickness in CK-p25 Tg mice; type: in vivo, mouse; conditions: visual cortex; for thickness of V1-neuronal layer: NeuN
Experimental: A study was conducted to examine the effect of gamma exposure and/or administration in accordance with some embodiments on DNA damage and neuronal loss in the visual cortex of a subject. For the study, an inducible mouse model of p25 accumulation (i.e., a creatine kinase carboxyl-terminal fragment p25 Tg mouse (CK-p25 Tg mouse)) was used.
A study was conducted to compare groups of mice under different treatment regimens. FIG. 84 is a diagram of the groups including CK-control mice 8400, untreated CK-p25 Tg mice 8402, CK-p25 Tg mice treated with memantine (10 mg/kg daily) 8404, CK-p25 Tg mice exposed to the 40-Hz light flicker (one hour daily for 6 weeks) in accordance with some embodiments 8406, and CK-p25 Tg mice treated with memantine and also exposed to the 40-Hz light flicker 8408. Memantine is a medication used with limited success to treat severe AD by blocking NMDA receptors, thereby acting on the glutamatergic system.
Cortical layer loss was gauged using nuclear staining with Hoechst labels (i.e., blue fluorescent dyes used to stain DNA). Neuronal layer loss was gauged using NeuN, a neuronal nuclear antigen that is commonly used as a biomarker for neurons. FIG. 89 is a bar graph depicting average thickness of the V1-cortical layer in each group, and FIG. 90 is a bar graph depicting average thickness of the V1-NeuN-positive cell layer in each group.

[5] = memantine + 40-Hz light flicker
[6] = memantine alone, compared to untreated CK-p25 Tg

CC12CC3CC(C)(C1)CC(N)(C3)C2 [memantine]
clinical outcome on cognition (AD patients): only mild cognitive benefits | thickness of neuronal layer of the insular cortex (CK-p25 Tg mice [1]; [5]): 848 ± 15 µm | thickness of neuronal layer of the insular cortex (CK-p25 Tg mice [1]; memantine alone): 850 ± 18 µm | thickness of cortical layer of the insular cortex (CK-p25 Tg mice [1]; [5]): 965 ± 16 µm | thickness of cortical layer of the insular cortex (CK-p25 Tg mice [1]; memantine alone): 983 ± 12 µm | thickness of SS1-neuronal layer (CK-p25 Tg mice [1]; [5]): 650 ± 11 µm | thickness of SS1-neuronal layer (CK-p25 Tg mice [1]; memantine alone): 629 ± 9 µm | thickness of SS1-cortical layer (CK-p25 Tg mice [1]; [5]): 778 ± 13 µm | thickness of SS1-cortical layer (CK-p25 Tg mice [1]; memantine alone): 756 ± 11 µm | neuronal loss (NeuN-positive cells) in hippocampus (CK-p25 Tg mice [2]; [5]): prevented some neuronal loss | neuronal loss (NeuN-positive cells) in insular cortex (CK-p25 Tg mice [2]; [5]): prevented the least neuronal loss | neuronal loss (NeuN-positive cells) in somatosensory cortex (CK-p25 Tg mice [2]; [5]): prevented most neuronal loss | neuronal loss (NeuN-positive cells) in visual cortex (CK-p25 Tg mice [2]; [5]): failed to prevent as much neuronal loss | neuronal loss (NeuN-positive cells) in hippocampus (CK-p25 Tg mice [2]; [6]): prevented some neuronal loss | neuronal loss (NeuN-positive cells) in insular cortex (CK-p25 Tg mice [2]; [6]): prevented some neuronal loss | neuronal loss (NeuN-positive cells) in somatosensory cortex (CK-p25 Tg mice [2]; [6]): failed to prevent any neuronal loss | neuronal loss (NeuN-positive cells) in visual cortex (CK-p25 Tg mice [2]; [6]): prevented some neuronal loss | number of γH2AX-positive cells in hippocampus (CK-p25 Tg mice [3]; [5]): significantly increased | number of γH2AX-positive cells in insular cortex (CK-p25 Tg mice [3]; [5]): significantly increased | number of γH2AX-positive cells in somatosensory cortex (CK-p25 Tg mice [3]; [5]): significantly increased | number of γH2AX-positive cells in visual cortex (CK-p25 Tg mice [3]; [5]): significantly increased | amount of γH2AX-positive cells in hippocampus (CK-p25 Tg mice [3]; [6]): reduced | amount of γH2AX-positive cells in insular cortex (CK-p25 Tg mice [3]; [6]): reduced | amount of γH2AX-positive cells in somatosensory cortex (CK-p25 Tg mice [3]; [6]): reduced | amount of γH2AX-positive cells in visual cortex (CK-p25 Tg mice [3]; [6]): reduced | thickness of V1-neuronal layer (CK-p25 Tg mice [4]; [5]): 691 ± 20 µm | thickness of V1-neuronal layer (CK-p25 Tg mice [4]; memantine alone): 660 ± 7 µm | thickness of V1-cortical layer (CK-p25 Tg mice [4]; [5]): 821 ± 22 µm | thickness of V1-cortical layer (CK-p25 Tg mice [4]; memantine alone): 788 ± 9 µm

From patent publication US12138398B2, “Methods and devices for providing a stimulus to a subject to induce gamma oscillations” (Massachusetts Institute of Technology, priority 2015, dated 2024)
